Test results published in patent US12440484B2, “1,3,4-oxadiazole homophthalimide derivative compounds as histone deacetylase 6 inhibitor, and the pharmaceutical composition comprising the same” (Chong Kun Dang Pharmaceutical Corp., priority 2019, dated 2025).

Key:
HDAC6 human recombinant = HDAC6 human recombinant (Homo sapiens (Human), UniProt Q9UBN7); test: HDAC enzyme activity inhibition (in vitro), HDAC6 assay; type: biochemical; settings: samples at 0.1, 1, 10, 100 and 1000 nM; 37° C. 60 minutes; fluorescence Ex 390, Em 460
HDAC1 = HDAC1 (Homo sapiens (Human), UniProt Q13547); test: HDAC enzyme activity inhibition (in vitro), HDAC1 Fluorimetric Drug Discovery Assay Kit; type: biochemical; settings: samples at 100, 1000 and 10000 nM; 37° C. 60 minutes; fluorescence Ex 390, Em 460
Sequence of HDAC1 (Q13547 whole entry): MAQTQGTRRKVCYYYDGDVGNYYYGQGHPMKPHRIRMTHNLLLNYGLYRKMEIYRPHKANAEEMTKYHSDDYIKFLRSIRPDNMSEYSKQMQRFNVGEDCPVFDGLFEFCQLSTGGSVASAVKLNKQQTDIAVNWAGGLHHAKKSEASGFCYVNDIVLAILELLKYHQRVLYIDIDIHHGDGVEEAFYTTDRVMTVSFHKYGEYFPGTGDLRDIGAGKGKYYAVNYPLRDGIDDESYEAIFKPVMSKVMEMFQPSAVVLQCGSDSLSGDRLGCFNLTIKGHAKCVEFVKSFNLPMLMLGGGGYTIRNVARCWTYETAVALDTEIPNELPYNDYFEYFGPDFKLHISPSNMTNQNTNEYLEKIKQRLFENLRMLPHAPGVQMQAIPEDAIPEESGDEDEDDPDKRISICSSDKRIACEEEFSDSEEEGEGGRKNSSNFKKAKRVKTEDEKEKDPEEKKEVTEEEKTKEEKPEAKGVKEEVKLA

Sequence of HDAC6 human recombinant (Q9UBN7 whole entry): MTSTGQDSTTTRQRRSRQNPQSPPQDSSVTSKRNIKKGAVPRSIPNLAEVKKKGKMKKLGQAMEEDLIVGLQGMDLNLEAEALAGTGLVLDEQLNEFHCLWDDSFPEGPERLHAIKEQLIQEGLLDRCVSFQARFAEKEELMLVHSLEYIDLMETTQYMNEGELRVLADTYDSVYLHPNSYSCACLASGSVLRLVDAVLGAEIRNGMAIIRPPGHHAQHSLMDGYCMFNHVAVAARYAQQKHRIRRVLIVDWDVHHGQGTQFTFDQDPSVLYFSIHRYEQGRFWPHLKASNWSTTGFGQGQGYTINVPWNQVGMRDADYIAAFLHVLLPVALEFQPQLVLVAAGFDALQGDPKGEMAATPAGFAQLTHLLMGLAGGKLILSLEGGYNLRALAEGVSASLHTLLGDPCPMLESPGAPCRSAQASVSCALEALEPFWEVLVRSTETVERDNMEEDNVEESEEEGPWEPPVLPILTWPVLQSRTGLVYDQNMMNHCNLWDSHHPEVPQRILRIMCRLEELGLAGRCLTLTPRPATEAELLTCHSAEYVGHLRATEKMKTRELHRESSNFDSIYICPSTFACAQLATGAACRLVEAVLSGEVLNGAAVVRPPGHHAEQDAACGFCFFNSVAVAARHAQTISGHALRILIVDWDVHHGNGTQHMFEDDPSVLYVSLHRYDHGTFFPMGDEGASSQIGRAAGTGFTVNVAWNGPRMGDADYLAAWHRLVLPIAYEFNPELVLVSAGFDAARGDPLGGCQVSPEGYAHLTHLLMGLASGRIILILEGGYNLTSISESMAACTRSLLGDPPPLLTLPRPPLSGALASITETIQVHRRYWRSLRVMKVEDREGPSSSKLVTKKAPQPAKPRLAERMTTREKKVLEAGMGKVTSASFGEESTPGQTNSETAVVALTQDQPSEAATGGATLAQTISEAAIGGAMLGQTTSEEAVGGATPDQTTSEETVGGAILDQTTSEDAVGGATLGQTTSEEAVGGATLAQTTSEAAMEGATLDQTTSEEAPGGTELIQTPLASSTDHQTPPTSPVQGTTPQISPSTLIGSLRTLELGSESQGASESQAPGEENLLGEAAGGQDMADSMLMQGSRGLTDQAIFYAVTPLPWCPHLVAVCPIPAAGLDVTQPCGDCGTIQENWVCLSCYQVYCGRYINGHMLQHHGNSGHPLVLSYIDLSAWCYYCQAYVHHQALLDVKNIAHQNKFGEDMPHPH

Row | Structure (SMILES) | IC50 (HDAC6 human recombinant) | IC50 (HDAC1)
1 | CC1(C)C(=O)N(Cc2ccc(-c3nnc(C(F)F)o3)cn2)C(=O)c2cc(-c3cccnc3)ccc21 [Compound 111, 2-((5-(5-(difluoromethyl)-1,3,4-oxadiazole-2-yl)pyridine-2-yl)methyl)-4,4-dimethyl-7-(pyridine-3-yl)isoquinoline-1,3(2H,4H)-dione] | 0.017 µM | > 10 µM
2 | Cn1c(=O)n(Cc2ccc(-c3nnc(C(F)F)o3)cn2)c(=O)c2ccc(-c3cccnc3)cc21 [Compound 100, 3-((5-(5-(difluoromethyl)-1,3,4-oxadiazole-2-yl)pyridine-2-yl)methyl)-1-methyl-7-(pyridine-3-yl)quinazoline-2,4(1H,3H)-dione] | 0.037 µM | > 10 µM
3 | O=C1c2ccccc2C(=O)N1Cc1ccc(-c2nnc(C(F)F)o2)cn1 [Compound 1, 2-((5-(5-(difluoromethyl)-1,3,4-oxadiazole-2-yl)pyridine-2-yl)methyl)isoindoline-1,3-dione] | 0.057 µM | > 10 µM
4 | CC1(C)C(=O)N(Cc2ccc(-c3nnc(C(F)F)o3)cc2F)C(=O)c2ccccc21 [Compound 7, 2-(4-(5-(difluoromethyl)-1,3,4-oxadiazole-2-yl)-2-fluorobenzyl)-4,4-dimethylisoquinoline-1,3(2H,4H)-dione] | 0.145 µM | > 10 µM
5 | CN1CCN(c2ccc3c(c2)C(C)(C)C(=O)N(Cc2ncc(-c4nnc(C(F)F)o4)cn2)C3=O)CC1 [Compound 153, 2-((5-(5-(difluoromethyl)-1,3,4-oxadiazole-2-yl)pyrimidine-2-yl)methyl)-4,4-dimethyl-6-(4-methylpiperazine-1-yl)isoquinoline-1,3(2H,4H)-dione] | 0.118 µM | > 10 µM
6 | CN1CCC(Cn2c(=O)n(Cc3ccc(-c4nnc(C(F)F)o4)cn3)c(=O)c3cc(F)ccc32)CC1 [Compound 73, 3-((5-(5-(difluoromethyl)-1,3,4-oxadiazole-2-yl)pyridine-2-yl)methyl)-6-fluoro-1-((1-methylpiperidine-4-yl)methyl)quinazoline-2,4(1H,3H)-dione] | 0.098 µM | > 10 µM
7 | CC1(C)C(=O)N(Cc2ccc(-c3nnc(C(F)F)o3)cn2)C(=O)c2cc(Br)ccc21 [Compound 51, 7-bromo-2-((5-(5-(difluoromethyl)-1,3,4-oxadiazole-2-yl)pyridine-2-yl)methyl)-4,4-dimethylisoquinoline-1,3(2H,4H)-dione] | 0.038 µM | > 10 µM
8 | CC1(C)C(=O)N(Cc2ccc(-c3nnc(C(F)F)o3)cn2)C(=O)c2ccc(C3=CCN(C4COC4)CC3)cc21 [Compound 43, 2-((5-(5-(difluoromethyl)-1,3,4-oxadiazole-2-yl)pyridine-2-yl)methyl)-4,4-dimethyl-6-(1-(oxetan-3-yl)-1,2,3,6-tetrahydropyridine-4-yl)isoquinoline-1,3(2H,4H)-dione] | 0.038 µM | > 10 µM
9 | CN(C)CCN(C)c1ccc2c(c1)C(C)(C)C(=O)N(Cc1ccc(-c3nnc(C(F)F)o3)cn1)C2=O [Compound 38, 2-((5-(5-(difluoromethyl)-1,3,4-oxadiazole-2-yl)pyridine-2-yl)methyl)-6-((2-(dimethylamino)ethyl)(methyl)amino)-4,4-dimethylisoquinoline-1,3(2H,4H)-dione] | 0.024 µM | > 10 µM
10 | COCCn1c(=O)n(Cc2ccc(-c3nnc(C(F)F)o3)cn2)c(=O)c2ccccc21 [Compound 17, 3-((5-(5-(difluoromethyl)-1,3,4-oxadiazole-2-yl)pyridine-2-yl)methyl)-1-(2-methoxyethyl)quinazoline-2,4(1H,3H)-dione] | 0.165 µM | > 10 µM
11 | CC1(C)C(=O)N(Cc2ccc(-c3nnc(C(F)F)o3)cn2)C(=O)c2ccc(-c3ccoc3)cc21 [Compound 102, 2-((5-(5-(difluoromethyl)-1,3,4-oxadiazole-2-yl)pyridine-2-yl)methyl)-6-(furan-3-yl)-4,4-dimethylisoquinoline-1,3(2H,4H)-dione] | 0.03 µM | > 10 µM
12 | CN(C)C(=O)C1CCN(c2ccc3c(c2)C(C)(C)C(=O)N(Cc2ccc(-c4nnc(C(F)F)o4)cn2)C3=O)CC1 [Compound 57, 1-(2-((5-(5-(difluoromethyl)-1,3,4-oxadiazole-2-yl)pyridine-2-yl)methyl)-4,4-dimethyl-1,3-dioxo-1,2,3,4-tetrahydroisoquinoline-6-yl)-N,N-dimethylpiperidine-4-carboxamide] | 0.032 µM | > 10 µM
13 | CC(=O)N1CCN(c2ccc3c(c2)C(C)(C)C(=O)N(Cc2ccc(-c4nnc(C(F)F)o4)cn2)C3=O)CC12CC2 [Compound 81, 6-(4-acetyl-4,7-diazaspiro[2.5]octane-7-yl)-2-((5-(5-(difluoromethyl)-1,3,4-oxadiazole-2-yl)pyridine-2-yl)methyl)-4,4-dimethylisoquinoline-1,3(2H,4H)-dione] | 0.011 µM | > 10 µM
14 | CC(C)N1CCC(c2ccc3c(c2)C(=O)N(Cc2ccc(-c4nnc(C(F)F)o4)cn2)C(=O)C3(C)C)CC1 [Compound 69, 2-((5-(5-(difluoromethyl)-1,3,4-oxadiazole-2-yl)pyridine-2-yl)methyl)-7-(1-isopropylpiperidine-4-yl)-4,4-dimethylisoquinoline-1,3(2H,4H)-dione] | 0.019 µM | > 10 µM
15 | O=c1c2cc(F)ccc2n(CCN2CCCCC2)c(=O)n1Cc1ccc(-c2nnc(C(F)F)o2)cn1 [Compound 71, 3-((5-(5-(difluoromethyl)-1,3,4-oxadiazole-2-yl)pyridine-2-yl)methyl)-6-fluoro-1-(2-(piperidine-1-yl)ethyl)quinazoline-2,4(1H,3H)-dione] | 0.15 µM | > 10 µM
16 | CC1(C)C(=O)N(Cc2ccc(-c3nnc(C(F)F)o3)cn2)C(=O)c2ccc(N3CCN(CC(=O)N4CCCC4)CC3)cc21 [Compound 33, 2-((5-(5-(difluoromethyl)-1,3,4-oxadiazole-2-yl)pyridine-2-yl)methyl)-4,4-dimethyl-6-(4-(2-oxo-2-(pyrrolidine-1-yl)ethyl)piperazine-1-yl)isoquinoline-1,3(2H,4H)-dione] | 0.034 µM | > 10 µM
17 | CC1(C)C(=O)N(Cc2ccc(-c3nnc(C(F)F)o3)cn2)C(=O)c2ccc(Br)cc21 [Compound 23, 6-bromo-2-((5-(5-(difluoromethyl)-1,3,4-oxadiazole-2-yl)pyridine-2-yl)methyl)-4,4-dimethylisoquinoline-1,3(2H,4H)-dione] | 0.065 µM | > 10 µM
18 | CC(C)(C)OC(=O)N1CCN(c2ccc3c(c2)C(=O)N(Cc2ccc(-c4nnc(C(F)F)o4)cn2)C(=O)C3(C)C)CC1 [Compound 116, tert-butyl 4-(2-((5-(5-(difluoromethyl)-1,3,4-oxadiazole-2-yl)pyridine-2-yl)methyl)-4,4-dimethyl-1,3-dioxo-1,2,3,4-tetrahydroisoquinoline-7-yl)piperazine-1-carboxylate] | 0.2 µM | > 10 µM
19 | CN(C)[C@H]1CCN(c2ccc3c(c2)C(C)(C)C(=O)N(Cc2ccc(-c4nnc(C(F)F)o4)cn2)C3=O)C1 [Compound 31, (S)-2-((5-(5-(difluoromethyl)-1,3,4-oxadiazole-2-yl)pyridine-2-yl)methyl)-6-(3-(dimethylamino)pyrrolidine-1-yl)-4,4-dimethylisoquinoline-1,3(2H,4H)-dione] | 0.029 µM | > 10 µM
